Assay: Surface tension of 5% solutions in water (Fisher Surface Tensiomat Model 21)
Type: physicochemical
Conditions: surfactants, Table 2
Protocol: The surface tensions of various organic acids and different formulations of the present invention were determined. Solutions were diluted to 5% in water and tested using a Fisher Surface Tensiomat Model 21.
Polysorbate-80 is allowed only for use in milk replacers and not for feed application. In the European Union ethoxylated castor oil surfactant is allowed for use in all animals. In order to determine a suitable surfactant to replace polysorbate-80, the surface tensions of different PEG ethoxylated castor oil surfactants were tested in 5% solutions.
The two best formulations from Example 1 were prepared using polysorbate-80 or castor oil PEG-60. The surface tension of 5% solutions of each formulation in water was determined.

Substance: Polysorbate-80
- Surface Tension: 40.57 dynes/cm

Reference: patent US20120148718A1, “METHOD FOR CONDITIONING ANIMAL FEED” (priority 2009, published 2012)
